Test results as given in the supplement of paper PMC10307832.

Key:
Experiment in all cases: relative viability (nuclei count vs DMSO), 5 days (fraction); higher = more cells survive
[1] = compound: O=c1[nH]cc(F)c(=O)[nH]1 [5-Fluorouracil] + CC1(C)CCC(c2ccc(Cl)cc2)=C(CN2CCN(c3ccc(C(=O)NS(=O)(=O)c4ccc(N[C@H](CCN5CCOCC5)CSc5ccccc5)c(S(=O)(=O)C(F)(F)F)c4)cc3)CC2)C1 [Navitoclax] (partner 0.5 µM)
How it was run: (§1)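 A single step with final 0.05% Triton X-100, 1% formaldehyde and 1 ug/ml Hoechst fixed the cells and stained nuclei 5 days after treatment. Lung cancer cell lines in 1536-well plates had been treated by pin tool the day after seeding with one drug alone or a fixed anchor-drug dose plus five library-drug doses (not always all listed) in √10 steps, and nuclei were counted on 4× images. Relative viability is the ratio of nuclei in treated wells to nuclei in vehicle wells, taken as the median of duplicate plates.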

5-Fluorouracil + AZD7762 = compound: O=c1[nH]cc(F)c(=O)[nH]1 [5-Fluorouracil] + NC(=O)Nc1cc(-c2cccc(F)c2)sc1C(=O)N[C@H]1CCCNC1 [AZD7762] (partner 0.2 µM)
How it was run: as §1

Sulindac + Palbociclib = compound: CC1=C(CC(=O)O)c2cc(F)ccc2/C1=C\c1ccc([S+](C)[O-])cc1 [Sulindac] + CC(=O)c1c(C)c2cnc(Nc3ccc(N4CCNCC4)cn3)nc2n(C2CCCC2)c1=O [Palbociclib] (partner 0.5 µM)
How it was run: as §1

Sulindac + Olaparib = compound: CC1=C(CC(=O)O)c2cc(F)ccc2/C1=C\c1ccc([S+](C)[O-])cc1 [Sulindac] + O=C(c1cc(Cc2n[nH]c(=O)c3ccccc23)ccc1F)N1CCN(C(=O)C2CC2)CC1 [Olaparib] (partner 8 µM)
How it was run: as §1

Cell Line | relative viability ([1]; first compound 0.02 µM) | relative viability ([1]; first compound 0.2 µM) | relative viability ([1]; first compound 0.6325 µM) | relative viability ([1]; first compound 2 µM) | relative viability (5-Fluorouracil + AZD7762; first compound 0.02 µM) | relative viability (5-Fluorouracil + AZD7762; first compound 0.2 µM) | relative viability (5-Fluorouracil + AZD7762; first compound 0.6325 µM) | relative viability (5-Fluorouracil + AZD7762; first compound 2 µM) | relative viability (Sulindac + Palbociclib; first compound 0.08 µM) | relative viability (Sulindac + Palbociclib; first compound 0.253 µM) | relative viability (Sulindac + Palbociclib; first compound 0.8 µM) | relative viability (Sulindac + Palbociclib; first compound 2.53 µM) | relative viability (Sulindac + Palbociclib; first compound 8 µM) | relative viability (Sulindac + Olaparib; first compound 0.08 µM) | relative viability (Sulindac + Olaparib; first compound 0.253 µM) | relative viability (Sulindac + Olaparib; first compound 0.8 µM) | relative viability (Sulindac + Olaparib; first compound 2.53 µM) | relative viability (Sulindac + Olaparib; first compound 8 µM)
HCC-827 | 0.969 | 1 | 0.592 | 0.382 | 0.164 | 0.178 | 0.166 | 0.147 | 0.496 | 0.552 | 0.48 | 0.547 | 0.465 | 0.636 | 0.683 | 0.573 | 0.659 | 0.734
HOP-62 | 1.09 | 1.13 | 1.01 | 0.805 | 0.636 | 1.06 | 0.522 | 0.473 | 0.495 | 0.553 | 0.469 | 0.525 | 0.541 | 0.3 | 0.677 | 0.351 | 0.266 | 0.545
IA-LM | 0.934 | 0.328 | 0.179 | 0.178 | – | – | – | – | – | – | – | – | – | 0.932 | 0.925 | – | 0.953 | 0.881
LC-2-ad | 0.445 | 0.441 | 0.296 | 0.186 | 0.922 | 0.536 | 0.331 | 0.253 | 0.521 | 0.514 | 0.37 | 0.469 | 0.547 | 0.746 | 0.677 | 0.676 | 0.686 | 0.66
LCLC-103H | – | – | – | – | 0.734 | 0.758 | 0.546 | 0.381 | 0.465 | 0.496 | 0.478 | 0.453 | 0.424 | 0.856 | 0.757 | 0.695 | 0.798 | 0.82
